Measured values published in patent US11584712B2, “Alkylamine-substituted perthiocarbamates as dual precursors to hydropersulfide and carbonyl sulfide” (The Johns Hopkins University, priority 2020, dated 2023).

Key:
[1] = RSSH generation and quantification of cyclic ureas by UPLC-MS with HPE-IAM or NEM trap; type: physicochemical
Description: Precursor 1a was dissolved in DMSO to afford a 1 mM stock solution. Similarly, HPE-IAM and N-ethyl maleimide (NEM) were independently dissolved in DMSO to obtain 50 mM stock solutions. To a 20 mL scintillation vial, HPE-IAM or NEM (30 μL, 50 mM) was added in pH 7.4 ammonium bicarbonate buffer (2.94 mL) containing the DTPA (100 μM). The resulting solution was pre-incubated at 37° C. for 10 min. Precursor 1a (30 μL, 1 mM) was then added into the mixture and incubated for 15 min at 37° C. An aliquot of the reaction mixture (500 μL) was withdrawn, 4-hydroxyphenylacetamide (10 μM) was added as internal standard, and analyzed using UPLC-MS as follows: Mobile phase: 0-1 min 90% water+0% ACN+10% formic acid (0.1%); 1-7.5 min gradient up to 10% water+80% ACN+10% formic acid (0.1%); 7.5-8.4 min 10% water+80% ACN+10% formic acid (0.1%); 8.4-8.5 min gradient up to 90% water+0% ACN+10% formic acid (0.1%), 8.5-10 min 90% water+0% ACN+10% formic acid (0.1%). Flow rate=0.3 mL/min. […] These studies were conducted at least in triplicate and representative spectra are presented.
Precursors 7a-d (10 μM) were independently incubated with HPE-IAM (500 μM) in pH 7.4 ammonium bicarbonate buffer (50 mM) containing DTPA (100 μM) at 37° C. The reaction mixture (500 μL) was analyzed using UPLC-MS. To quantify 2a-d generated from these precursors, a calibration curve of each individual cyclic urea with known concentrations was independently generated.
Precursor 1a was dissolved in DMSO to afford a 1 mM stock solution. Similarly, HPE-IAM was dissolved in DMSO to obtain a 50 mM stock solution. To a 20 mL scintillation vial, HPE-IAM (30 μL, 50 mM) was added in pH 7.4 ammonium bicarbonate buffer (2.94 mL) containing the DTPA (100 μM). The resulting solution was pre-incubated at 37° C. for 10 min. Precursor 1a (30 μL, 1 mM) was then added into the mixture and incubated for 15 min at 37° C. An aliquot of the reaction mixture (500 μL) was withdrawn and analyzed using UPLC-MS as follows: Mobile phase: 0-1 min 90% water+0% ACN+10% formic acid (0.1%); 1-7.5 min gradient up to 10% water+80% ACN+10% formic acid (0.1%); 7.5-8.4 min 10% water+80% ACN+10% formic acid (0.1%); 8.4-8.5 min gradient up to 90% water+0% ACN+10% formic acid (0.1%), 8.5-10 min 90% water+0% ACN+10% formic acid (0.1%). Flow rate=0.3 mL/min. The mass signals for product of RSSH trapping with HPE-IAM were obtained via deconvolution using MassLynx 4.1 software. These studies were conducted at least in triplicate and representative spectra are presented.
Precursors 7a-d (10 μM) were independently incubated with HPE-IAM (500 μM) in pH 7.4 ammonium bicarbonate buffer (50 mM) containing DTPA (100 μM) at 37° C. This reaction mixture was analyzed by UPLC-MS as follows: Mobile phase: 0-1 min 90% water+0% ACN+10% formic acid (0.1%); 1-7.5 min gradient up to 10% water+80% ACN+10% formic acid (0.1%); 7.5-8.4 min 10% water+80% ACN+10% formic acid (0.1%); 8.4-8.5 min gradient up to 90% water+0% ACN+10% formic acid (0.1%), 8.5-10 min 90% water+0% ACN+10% formic acid (0.1%). Flow rate=0.3 mL/min. To quantify 2a-d generated from these precursors, a calibration curve of each individual cyclic urea with known concentrations was independently generated.

[2] = COS release using membrane inlet mass spectrometry (MIMS); type: physicochemical; details: precursor 50 μM, NAC 0.25 mM (5 equiv.), pH 7.4 phosphate buffer saline with DTPA, 37° C.
Description: (§1) COS was analyzed using a Hiden HPR-40 MIMS system with a sample cell and membrane probe that have been optimized to detect gases dissolved in aqueous solution as described previously. Cline et al., 2011. A stock solution of N-acetyl-cysteine (25 mM) was prepared in DI water. RSSH precursor stock solutions (5 mM) were prepared in DMSO. These solutions were degassed by purging with nitrogen for 10 min before COS release analysis. Typically, 20 mL phosphate buffer solution (10 mM) was added to the sample cell, degassed and purged with a continuous flow of argon for 15 min. N-acetyl cysteine (200 μL, 25 mM) and RSSH precursor (200 μL, 5 mM) were then injected using a gas tight syringe and ion current at m/z 60 (COS^+) were collected for 2 h (source pressure was approximately 1×10^−7 to 5×10^−7 Torr).
as §1, with “(COS*)” for “(COS^+)”

[3] = RSSH generation in the presence of N-acetyl cysteine by UPLC-MS; type: physicochemical; details: precursor 100 μM, NAC 500 μM, pH 7.4 ammonium bicarbonate buffer with DTPA, 37° C.
Description: […] The resulting mixture was incubated at 37° C. An aliquot (200 μL) of reaction mixture was withdrawn at specified time points and quenched with 1% formic acid (200 μL). 3-Amino-benzoic acid (50 μM) was added to each sample as internal standard prior to UPLC-MS analysis. To quantify 2a-d generated from these precursors, a calibration curve for each individual cyclic urea with known concentrations was independently generated.
[…] The resulting mixture was incubated at 37° C. An aliquot ([…]) of reaction mixture was withdrawn at specified time points and quenched with 1% formic acid (200 μL). 3-amino-benzoic acid (50 μM) was added to each sample as internal standard prior to UPLC-MS analysis. To quantify 2a-d generated from these precursors, the calibration curve of each individual cyclic urea with known concentrations was independently generated.

[4] = Kinetics of RSSH release from precursors monitored by HPLC (HPE-IAM trapping); type: physicochemical; details: precursor 100 μM, HPE-IAM 5 mM, pH 7.4 phosphate buffer with DTPA, 37° C.
Description: (§2) Precursors 7a-d were dissolved in DMSO to afford 10 mM stock solutions. HPE-IAM was dissolved in DMSO to obtain a 100 mM stock solution. […] This solution was pre-incubated for 10 min at 37° C. and then precursor 7a-d (30 μL, 10 mM) were independently added into the mixture. The resulting solution was incubated at 37° C. At different time points, an aliquot of 200 μL was taken and quenched with 200 μL […] solution. These samples were stored at 0° C. until HPLC analysis was performed. The sample (20 μL) was injected into a high-performance liquid chromatography (HPLC) equipped with Phenomenex C-18 reverse phase column (250 mm×4.6 mm, 5 μm). HPLC Method: mobile phase A (H2O) and mobile phase B (ACN), flow rate: 1 mL/min, run time: 20 min, the gradient elution method: 10% to 40% B from 0 to 12 min, 40% to 80% B from 12 to 20 min. The elution was monitored by a UV detector at 275 nm. A calibration curve was generated using RSS-HPE-AM 9 to quantify RSSH generation from 7a-d.
as §2, with “by a variable UV detector” for “by a UV detector”

H9c2 cells = assay: Cytotoxicity study with SYTOX Green nucleic acid stain; type: cell-based, rat; details: 24 h exposure, 0-150 μM
Description: H9c2(2-1) embryonic rat heart myoblasts were obtained from the American Type Culture Collection. Cells were grown in Dulbecco's […] (DMEM), supplemented with fetal bovine serum (FBS) 10%, penicillin 100 U/mL and streptomycin 100 μg/mL. They were propagated in T75-flasks, split before reaching 70-80% confluence (usually every day or every second day), and used within 11 passages. Cells were passaged to tissue culture treated 96-well microtiter plates at the specified density in 180 μL volumes and incubated for 24 h.
Cells were seeded at a density of 1×10^4 cells/well. […] Then, 100 μL of media containing 3 μM SYTOX™ Green nucleic acid stain (Invitrogen) was added and the cells were incubated for 2 h before fluorescence readings were obtained at 485Ex/538Em (Step 1). Finally, an additional 100 μL of media containing 3 μM SYTOX™ and 0.2% Triton X-100 was added in order to permeabilize all cells and incubated for 1 h before fluorescence values measured (Step 2). The relative % cells surviving was calculated as a 100% minus the ratio of the fluorescence value of Step 1 over Step 2 (% cells surviving=100%−(FL538 (Step 1)/FL538(Step 2)).
Cells were seeded at a density of 1×10^4 cells/well. […] The relative % cells surviving was calculated as a 100% minus the ratio of the fluorescence value of Step 1 over Step 2 (% cells surviving=100%−(FL538 (Step 1)/FL538(Step 2)).

CNCCN(C)C(=O)SSCC(NC(C)=O)C(=O)OC (stereo not shown) [Precursor 1a, 2-(((2-Acetamido-3-methoxy-3-oxopropyl)disulfannecarbonyl)(methyl)amino)-N-methylethan-1-aminium]
yield of byproduct 2a ([1]; NEM 50 equiv., pH 7.4 buffer): 74%
yield of cyclic urea byproduct ([1]; precursor 10 μM, HPE-IAM 500 μM (50 equiv.), pH 7.4 ammonium bicarbonate buffer, 37° C.): 52%
byproduct 2a formation ([1]; precursor 10 μM, NEM 500 μM, pH 7.4 ammonium bicarbonate buffer, 37° C., 15 min): 7.4 ± 0.2 µM

COC(=O)C(NC(C)=O)C(C)(C)SSC(=O)N(C)CCCN (stereo not shown) [Precursor 7d, 3-(((3-acetamido-4-methoxy-2-methyl-4-oxobutan-2-yl)disulfannecarbonyl)(methyl)amino)propan-1-aminium]
COS release (m/z=60 signal) [2]: produce mainly COS
Byproduct % (yield of cyclic urea 2a-d) [3]: 5.9 ± 0.4%
Hydropersulfide Yield (%) [4]: 82 ± 1%

CN1CCNC1=O [byproduct 2b, 1-methylimidazolidin-2-one]
cytotoxicity toward H9c2 cells (H9c2 cells): no toxicity
